{"source": "patent US5866787A", "about": "“Transgenic plants co-expressing a functional human 2-5A system” (Cleveland Clinic Foundation, priority 1995, dated 1999)", "key": {"[1]": {"test_system": "2-5A-dependent RNase", "conditions": "depending on the cell type; cited from earlier work"}, "[2]": {"test_system": "recombinant human RNase L", "experiment": "2-5A dependent ribonuclease L assay, poly(U) cleavage", "format": "biochemical", "conditions": "about 30° C. for about 2 hr", "description": "FIG. 25. Transgenic plants produce functional, human recombinant 2-5A synthetase. Extracts of plants containing cDNA to both human RNase L and 2-5A synthetase (lanes 8-11), of control plants that are transformed with vector alone (lanes 12-15), and of interferon treated human HeLa cells (lanes 16 and 17) are assayed for 2-5A synthetase activity. 2-5A synthetase activity in extracts of transgenic plants is determined by a functional assay for 2-5A. […] The total cell lysates are centrifuged at about 10,000×g for about 10 min at about 4° C., the supernatants are collected and the protein concentration is determined as described in Bradford, M. et al.: Anal. Biochem., 72:248 (1976). […] 2-5A is monitored by its ability to activate RNase L, which are expressed and isolated from insect cells, Dong, B. et al.: J. Biol. Chem., 269:14153 (1994), to cleave poly (U) to discrete products (arrows). […]\nTo determine if 2-5A synthetase is present in the transgenic tobacco plants, functional assays for the enzyme are performed. 2-5A synthetase activity in extracts of transgenic plants is determined by a functional assay for 2-5A. […] The total cell lysates are centrifuged at about 10,000×g for about 10 min at about 4° C., the supernatants are collected and the protein concentration is determined. […]"}, "[3]": {"test_system": "2-5A-dependent RNase", "conditions": "cited from earlier work"}, "[4]": {"test_system": "RNase L", "experiment": "2-5A uptake by cut leaves, 18S rRNA northern blot", "format": "cell-based, transgenic plant expressing human RNase L", "conditions": "1 μM taken up by cut leaves for seven hours; not in control plant", "description": "FIG. 30 illustrates that RNase L in cut leaves is activated to cleave rRNA by incubation in a solution containing 2-5A. A northern blot probed with ^32 P-labeled cDNA to […] rRNA is shown. The cut leaves are from a control plant (lanes 1 and 2) or from a plant transgenic for human RNase L cDNA (lanes 3 and 4). The presence or absence of 2-5A and the position of the 2-5A-mediated rRNA cleavage products are shown.\nLeaves from control and transgenic plants are cut and allowed to take up 2-5A [1 μM of p3 (A2'p)3 A] through the petiole for about seven hours at room temperature under fluorescent light. Total RNA is prepared and used to prepare northern blots. THe RNA in the blots is hybridized to a ^32 P labeled human 18S rRNA cDNA probe (the cDNA is provided by Dr. John Thaden, Baltimore).\nTo monitor uptake of 2-5A, leaves are cut at the base of the petiole and then placed in a solution of ^32 P-labeled 2-5A probe for about three hours at room temperature under light. The petiole was cut further and autoradiograms were made from the lamina. Uptake and translocation of the 2-5A probe is readily apparent through veins to all parts of lamina (data now shown). Catalytic activity of RNase L in the intact leaves is determined after allowing unlabeled 2-5A, p3 A(2'p5'A)3 (1 μM), to be taken up by cut leaves for seven hours. […]"}, "[5]": {"test_system": "RNase L", "experiment": "2-5A injection into detached leaves, 18S rRNA northern blot", "format": "cell-based, transgenic tobacco", "conditions": "about 2.5 μM injected, about 3 hrs; not in control or synthetase-only plants", "description": "FIG. 24. […] Leaves are injected with about 2.5 μM 2-5A, total RNA is extracted after 3 hr and probed with ^32 P-labeled 18S cDNA. Lanes 1-2, control plant, lanes 3 and 4, plant expressing only 2-5A synthetase (Syn); lane 5, plant expressing only RNase L (RL); lanes 6-7, plants expressing both 2-5A synthetase and RNase L (Syn+RL).\nFunctional expression of RNase L in transgenic tobacco plants is detected by 2-5A-induced breakdown of 18S ribosomal RNA (rRNA) in detached leaves that are injected with 2-5A. Transgenic leaves are injected with about 2.5 μM p3 A(2'p5'A)3 and are incubated for about 3 hrs before total RNA is prepared. […] In addition, plants expressing RNase L are believed to have specific 2-5A binding activity that is absent in control, non-transgenic plants."}, "[6]": {"test_system": "poly(U)", "experiment": "Ribonuclease assay with 2-5A-cellulose, poly(U) substrate", "format": "biochemical", "conditions": "enzyme translated in reticulocyte lysate, bound to 2-5A-cellulose, 30° C.", "description": "(§1) FIG. 5B is reticulocyte lysate pretreated to remove endogenous 2-5A-dependent RNase and is incubated in the absence of added mRNA (.box-solid.), in the presence of human 2-5A-dependent RNase mRNA without inhibitor (.smallcircle., .quadrature.) or in the presence of both 2-5A-dependent RNase mRNA and cycloheximide (50 μg per ml (.circle-solid.). See Example I. Subsequently, the recombinant 2-5A-dependent RNase (or controls) is adsorbed to 2-5A-cellulose and ribonuclease assays are performed after extensive washing of the matrix to reduce general nuclease activity. Radiolabeled substrate RNA was either poly(U) (.smallcircle., .circle-solid., .box-solid.) or poly(C) (.quadrature.).\n(§2) The ribonuclease assay with 2-5A-cellulose is performed, as described by Silverman, R. H., Anal. Biochem., 144:450-460 (1985). Briefly, lysates are adsorbed to about […] of 2-5A-cellulose on ice for about two hours. The matrix is then washed three times by centrifuging and resuspending in buffer A. See Silverman, R. H., Anal. Biochem., 144:450-460 (1985). The matrix is then incubated with poly(U)-[^32 P]Cp or poly(C)-[^32 P]Cp (both at about 16 μM in nucleotide equivalents) at about 30° C. and the levels of acid-precipitable radioactive RNA are determined by filtration on glass-fiber filters."}, "[7]": {"test_system": "poly(C)", "experiment": "Ribonuclease assay with 2-5A-cellulose, poly(C) substrate", "format": "biochemical", "conditions": "after one hour of incubation", "description": "as §1, §2"}, "[8]": {"test_system": "32P-2-5A probe", "experiment": "2-5A probe crosslinking to lysine to asparagine mutants, phosphorimager analysis", "format": "binding", "conditions": "uv crosslinking, phosphorimager analysis of dried gel"}}, "data": [{"molecule": "interferon", "values": [{"measurement": "enhancement of levels of 2-5A-dependent RNase", "setting": "[1]", "result": "two- to twenty-fold"}]}, {"molecule": "pA(2'p5'A)3", "values": [{"measurement": "activation of RNase L to cleave poly(U)", "setting": "[2]", "result": "production of discrete poly (U) cleavage products"}]}, {"molecule": "Nc1ncnc2c1ncn2[C@@H]1O[C@H](COP(=O)(O)OP(=O)(O)OP(=O)(O)O)[C@@H](O)[C@H]1O", "note": "[ATP]", "values": [{"measurement": "stimulatory effect on 2-5A-dependent RNase activity", "setting": "[3]", "result": "two-fold"}]}, {"molecule": "p3 A(2'p5'A)3", "values": [{"measurement": "degradation of 18S rRNA in RNase L expressing plants", "setting": "[4]", "result": "induce degradation of the 18S rRNA to discrete cleavage products"}, {"measurement": "degradation of rRNA in plants expressing RNase L", "setting": "[5]", "result": "degradation of rRNA"}]}, {"molecule": "recombinant human 2-5A-dependent RNase: full-length human 2-5A-dependent RNase (clone ZC5) produced in vitro in reticulocyte lysate (protein) MESRDHNNPQEGPTSSSGRRAAVEDNHLLIKAVQNEDVDLVQQLLEGGANVNFQEEEGGWTPLHNAVQMSREDIVELLLRHGADPVLRKKNGATLFILAAIAGSVKLLKLFLSKGADVNECDFYGFTAFMEAAVYGKVKALKFLYKRGANVNLRRKTKEDQERLRKGGATALMDAAEKGHVEVLKILLDEMGADVNACDNMGRNALIHALLSSDDSDVEAITHLLLDHGADVNVRGERGKTPLILAVEKKHLGLVQRLLEQEHIEINDTDSDGKTALLLAVELKLKKIAELLCKRGASTDCGDLVMTARRNYDHSLVKVLLSHGAKEDFHPPAEDWKPQSSHWGAALKDLHRIYRPMIGKLKFFIDEKYKIADTSEGGIYLGFYEKQEVAVKTFCEGSPRAQREVSCLQSSRENSHLVTFYGSESHRGHLFVCVTLCEQTLEACLDVHRGEDVENEEDEFARNVLSSIFKAVQELHLSCGYTHQDLQPQNILIDSKKAAHLADFDKSIKWAGDPQEVKRDLEDLGRLVLYVVKKGSISFEDLKAQSNEEVVQLSPDEETKDLIHRLFHPGEHVRDCLSDLLGHPFFWTWESRYRTLRNVGNESDIKTRKSESEILRLLQPGPSEHSKSFDKWTTKINECVMKKMNKFYEKRGNFYQNTVGDLLKFIRNLGEHIDEEKHKKMKLKIGDPSLYFQKTFPDLVIYVYTKLQNTEYRKHFPQTHSPNKPQCDGAGGASGLASPGC", "values": [{"measurement": "half-life of poly(U) degradation", "setting": "[6]", "result": "about 10 minutes"}, {"measurement": "poly(C) degraded", "setting": "[7]", "result": 20, "unit": "%"}]}, {"molecule": "ZB1(Lys^240,274 →Asn): clone ZB1 double mutant, lysines 240 and 274 mutated to asparagine (protein, UniProt Q05921 1-735, looked up, variant K240N K274N) 2-5A-dependent ribonuclease: METPDYNTPQGGTPSAGSQRTVVEDDSSLIKAVQKGDVVRVQQLLEKGADANACEDTWGWTPLHNAVQAGRVDIVNLLLSHGADPHRRKKNGATPFIIAGIQGDVKLLEILLSCGADVNECDENGFTAFMEAAERGNAEALRFLFAKGANVNLRRQTTKDKRRLKQGGATALMSAAEKGHLEVLRILLNDMKAEVDARDNMGRNALIRTLLNWDCENVEEITSILIQHGADVNVRGERGNTPLIAAVERKHTGLVQMLLSREGINIDARDNEGNTALLIAVDKQLKEIVQLLLEKGADKCDDLVWIARRNHDYHLVKLLLPYVANPDTDPPAGDWSPHSSRWGTALKSLHSMTRPMIGKLKIFIHDDYKIAGTSEGAVYLGIYDNREVAVKVFRENSPRGCKEVSCLRDCGDHSNLVAFYGREDDKGCLYVCVSLCEWTLEEFLRLPREEPVENGEDKFAHSILLSIFEGVQKLHLHGYSHQDLQPQNILIDSKKAVRLADFDQSIRWMGESQMVRRDLEDLGRLVLYVVMKGEIPFETLKTQNDEVLLTMSPDEETKDLIHCLFSPGENVKNCLVDLLGHPFFWTWENRYRTLRNVGNESDIKVRKCKSDLLRLLQHQTLEPPRSFDQWTSKIDKNVMDEMNHFYEKRKKNPYQDTVGDLLKFIRNIGEHINEEKKRGMKEILGDPSRYFQETFPDLVIYIYKKLKETEYRKHFPQPPPRLSVPEAVGPGGIQS", "values": [{"measurement": "2-5A binding activity, % of clone ZB1", "setting": "[8]", "result": 12.2, "unit": "%"}]}]}
